Where “and” joins values, the source holds several entries; their conditions need not be identical. Identical values can stand only once.
Legend:
[1] = system: Limulus Amoebocyte Lysate
MxA protein = MxA protein induction in dendritic cells (Western blot); format: cell-based, human; conditions: 1 μg/ml; after 24 hr and 48 hours; FIGS. 77, 78
Protocol: The ability of products of the invention to induce production of antiviral MxA protein by predendritic cells has been assessed. MxA production by cells was measured after an SDS-PAGE electrophoretic separation by a Western Blot assay
Extraction and analysis of protein was conducted as follows: cells were harvested, then washed 3 times with PBS (phosphate buffered saline) and lyzed with a 100 Mm Tris-HCl buffer, 150 mM NaCl, 5 mM EDTA, 1% Triton-100 containing 1 mM PMSF (phenylmethylsulphonyl fluoride) and 1 μ/ml of pepstatin as protease inhibitors. Lysis was carried out at a density of 10^6 cells for 100 μl of (5×) buffer containing 60 mM Tris-HCl (pH 6.8), 10% glycerol, 2% SDS, 14.4 mM 2-mercaptoethanol and 0.1% bromophenol). Samples were heated up to 95° C. for 5 min. in sealed Eppendorf tubes. Electrophoresis was performed on a 10 cm×10 cm 12% acrylamide minigel by running a sample having the same number of cells. Migration was effected with the following buffer: 25 mM Tris, 192 mM glycine, 0.1% SDS, pH 8.3. […]
Non specific bonding sites on the membrane were blocked with 5% skimmed milk in TBS (10 mM Tris-HCl, 150 Mm NaCl, pH 7.4) and allowing to stand for 1 hour at room temperature. […] In this system, HRP catalyzes a luminol-mediated chemiluminescent reaction which can be detected on a photographic film. […]

Leishmania LmCPb antigen [2] = assay: Leishmania LmCPb immunization: lymph node cell proliferation (3H-TdR); format: in vivo, CBA mice; parameters: scale not given here
Protocol: (§1) CBA mice were administered through the tail a single subcutaneous injection (100 μl) of Leishmania parasite LmCPb antigen (3 μg per mouse)±adjuvant. […] Eleven days after injection, inguinal and periaortic lymph node cells (2 groups of 3 mice each) were cultured in triplicate in presence of purified LmCPb antigen or whole extract of the parasite (amastigote). At day 4, a supernatant sample is withdrawn and stored at −20° C. for IL-4 and γ IFN assay. Finally, tritiated thymidine (^3H-TdR) is added to the cultures to measure the proliferation reaction.
(§2) Cytokine assay is carried out by a sandwich ELISA assay (OptEIA®) kits for γ IFN and IL-4, BD, PharMingen, Basel, Switzerland) and the proliferation response is determined by measuring thymidine take-up (^3H-TdR). ^3H-TdR take-up given in cpm as the arithmetic mean value±standard deviation ([…] of 3 mice each) and IL-4 concentration given in pg/ml are individually reported for each pool of 3 mice as the arithmetic mean of two measurements (cytokine assay).
(§3) An LmCPb stock solution is prepared at a concentration of 150 μg/ml in PBS
(§4) Adjuvants: The stock solution of OM-294-MP-AC is prepared at a concentration of 0.9 mg/ml in water for injection, with addition of 0.1% triethanolamine.
(§5) Antigen-adjuvant mixture: Adjuvant preparation (4 volumes), which had been adjusted to an adequate final concentration in sterile PBS, is mixed just prior to injection with the antigen stock solution (1 volume).

K562 cells = assay: activation of NK cell cytotoxicity against K562 target cells (LDH release); format: cell-based, human
Protocol: PBMC were recovered from buffy coats according to the procedure previously described in example 4.6. […] Cells were incubated under such conditions for 24 hours. K562 cells (human leukemia cell line, ATCC #CCL 243, 20110-2209 Manassas (Va.), U.S.A.) were maintained in culture using RPMI medium containing 10% FCS and subjected to 2 passages per week.
In order to make cytotoxicity measurement, PBMC and K562 cells were washed twice in HBSS and resuspended in Phenol Red-free RPMI medium containing 5% FCS. PBMC were divided into a round bottom 96-well plate so as to achieve a PBMC/target ratio of 20/1, 10/1 and 5/1 in 50 μl volume. 5000 K562 cells (target) were added in each well using 50 μl of Phenol Red-free RPMI. Final volume was 100 μl. The plate was centrifuged to promote contact then incubated at 37° C. for 4 hours.
Cytotoxicity was assayed using a non radioactive CytoTox 96 kit based on measuring LDH release during cell lysis (kit #G1780, batch #124100, Promega, Madison, Wis.) according to the supplier's instructions.
The percentage of cytotoxicity was calculated according to the following equation: […]

dendritic cells = assay: in vivo maturation and migration of dendritic cells into the spleen; parameters: species or system mice; conditions: i.v. 20 μg and s.c. 5 μg per mouse
Text: Immunostaining of histological slides taken from spleen of animals treated with products of the invention reveal colocalization of mature dendritic cells and T cells in the […], as is seen with LPS treatment, whereas in untreated animals, no migration and maturation are observed.

Spleenic cells = assay: murine spleenic cell proliferation (3H-TdR take-up); format: cell-based, CBA mice; conditions: for increase of thymidine take-up: one day of culture
Protocol: Cell proliferation response is assessed by measuring triturated thymidine (^3H-TdR) take-up after 1 or 2 days of culture. Values reported in the table stand for the arithmetic mean±standard deviation of 4 cultures.

Leishmania LmCPb antigen [3] = assay: Leishmania LmCPb immunization: IL-4 and γ IFN in lymph node cell supernatant (ELISA); format: in vivo, CBA mice; conditions: pools a and b
Protocol: as §1, §2, §3, §4, §5

CCCCCCCCCCCC(=O)O[C@H](CCCCCCCCCCC)CC(=O)NC(CCOP(=O)(O)O)C(=O)NCCCC(COC(=O)CCCCCN)NC(=O)C[C@H](O)CCCCCCCCCCC (stereo partly drawn) [OM-197-MP-AC, 3-[(R)-3-dodecanoyloxytetra-decanoylamino]-4-oxo-5-aza-9-[(R)-3-hydroxytetradecanoylamino]-1,10-diol-dihydrogenphosphate 10-(6-aminohexanoate)]
LAL EU/mg of product [1]: 6 EU/mg of product
LAL ng of LPS equivalent per mg of product [1]: 0.48 ng of LPS equivalent per mg of product
production of MxA protein (MxA protein): significant rise
triturated thymidine take-up (Leishmania LmCPb antigen [2]; adjuvant 50 μg s.c. with LmCPb, in vitro: No challenge): 0.7 ± 0.1 CPM
triturated thymidine take-up (Leishmania LmCPb antigen [2]; in vitro challenge Amastigotes 2 ×10^−6/ml): 1.6 ± 0.3 CPM
triturated thymidine take-up (Leishmania LmCPb antigen [2]; in vitro challenge Amastigotes 6 ×10^−6/ml): 5.3 ± 1.5 CPM
triturated thymidine take-up (Leishmania LmCPb antigen [2]; in vitro challenge Amastigotes 17 ×10^−6/ml): 12.6 ± 2.5 CPM
triturated thymidine take-up (Leishmania LmCPb antigen [2]; in vitro challenge Amastigotes 50 ×10^−6/ml): 32.6 ± 5.2 CPM
triturated thymidine take-up (Leishmania LmCPb antigen [2]; in vitro challenge Con A 5 μg/ml): 208.5 ± 56.0 CPM
triturated thymidine take-up (Leishmania LmCPb antigen [2]; in vitro challenge LmCPb 0.6 μg/ml): 1.3 ± 0.5 CPM
triturated thymidine take-up (Leishmania LmCPb antigen [2]; in vitro challenge LmCPb 5 μg/ml): 3.0 ± 1.1 CPM
triturated thymidine take-up (Leishmania LmCPb antigen [2]; in vitro challenge LmCPb 15 μg/ml): 7.0 ± 0.7 CPM
NK activity level (K562 cells; 1 μg/ml): comparable or slightly inferior to that induced by LPS
% cytotoxicity (K562 cells; Ratio PBMC:K562 5.1): 7.4%
Optical density at 490 nm, K562 + PBMC (K562 cells; Ratio PBMC:K562 5.1): 1.5
Optical density at 490 nm, PBMC alone (K562 cells; Ratio PBMC:K562 5.1): 0.027
% cytotoxicity (K562 cells; Ratio PBMC:K562 10.1): 13.7%
Optical density at 490 nm, K562 + PBMC (K562 cells; Ratio PBMC:K562 10.1): 1.66
Optical density at 490 nm, PBMC alone (K562 cells; Ratio PBMC:K562 10.1): 0.084
% cytotoxicity (K562 cells; Ratio PBMC:K562 20.1): 22%
Optical density at 490 nm, K562 + PBMC (K562 cells; Ratio PBMC:K562 20.1): 1.8
Optical density at 490 nm, PBMC alone (K562 cells; Ratio PBMC:K562 20.1, stimulus 24 hours): 0.084
maturation and migration of dendritic cells in spleen (dendritic cells): induce maturation and migration of dendritic cells into the spleen
3H-TdR take-up (Spleenic cells; 0.1 μg/ml, incubation 1 day): 8.7 ± 0.7 CPM × 10^−3
3H-TdR take-up (Spleenic cells; 0.1 μg/ml, incubation 2 days): 21.1 ± 1.3 CPM × 10^−3
3H-TdR take-up (Spleenic cells; 1 μg/ml, incubation 1 day): 34.3 ± 2.6 CPM × 10^−3
3H-TdR take-up (Spleenic cells; 1 μg/ml, incubation 2 days): 55.6 ± 5.2 CPM × 10^−3
increase of thymidine take-up (Spleenic cells; 1 μg/ml): 5 fold
3H-TdR take-up (Spleenic cells; 10 μg/ml, incubation 1 day): 79.0 ± 12 CPM × 10^−3
3H-TdR take-up (Spleenic cells; 10 μg/ml, incubation 2 days): 92.7 ± 8.8 CPM × 10^−3
increase of thymidine take-up (Spleenic cells; 10 μg/ml): 12 fold
IL-4 production (Leishmania LmCPb antigen [3]; No challenge): <8 pg/mL
IL-4 production (Leishmania LmCPb antigen [3]; in vitro challenge Amastigotes, first pair of lines): 55 pg/mL and 70 pg/mL
IL-4 production (Leishmania LmCPb antigen [3]; in vitro challenge Amastigotes, second pair of lines): 29 pg/mL and 28 pg/mL
IL-4 production (Leishmania LmCPb antigen [3]; in vitro challenge Con A): 103 pg/mL and 102 pg/mL
IL-4 production (Leishmania LmCPb antigen [3]; in vitro challenge LmCPb): 12 pg/mL and 13 pg/mL

— US8173133B2, “Acyl pseudodipeptides which carry a functionalized auxiliary arm” (OM Pharma, priority 1999, dated 2012)
